pIC50: −log10 of the molar value. Read-outs that look alike come from different tables or passages of the source.
Legend:
[1] = target: GSK3α (GST-full length GSK3α) (Homo sapiens (Human), UniProt P49840); test: GSK3α TR-FRET kinase assay; format: biochemical
How it was run: (§1)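 Readout: anti-pSer641 Tb antibody/streptavidin-d2 signal after 60 min, expressed as 665/615 ratio and fitted versus log concentration for IC50. Enzyme: 1 nM GST-GSK3 (α or β), compound-preincubated 30 min. Conditions: pH 7.5 Tris buffer with MgCl2, DTT, BSA; ATP at 4 or 2 μM, or 1 mM; 100 min.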

[2] = target: GSK3b (GST-full length GSK3b) (Homo sapiens (Human), UniProt P49841); test: GSK3b TR-FRET kinase assay; format: biochemical
How it was run: as §1

[3] = 1 nM GSK3α, 4 μM ATP, 30 minute preincubation, Table 16, read-out: GSK3-A TR-FRET BIOCHEMICAL (TR-FRET), IC50
[4] = 1 nM GSK3b, 2 μM ATP, 30 minute preincubation, Table 16, read-out: GSK3-B TR-FRET BIOCHEMICAL (TR-FRET), IC50
[5] = 1 nM GSK3α, 4 μM ATP, 30 minute preincubation, Table 16, read-out: GSK3-A TR-FRET BIOCHEMICAL (TR-FRET)
[6] = 1 nM GSK3b, 2 μM ATP, 30 minute preincubation, Table 16, read-out: GSK3-B TR-FRET BIOCHEMICAL (TR-FRET)
[7] = read-out: GSK3-A (TR-FRET 1 mM ATP), GMean, IC50, 1 mM ATP, geometric mean
[8] = read-out: GSK3-B (TR-FRET 1 mM ATP), GMean, IC50, 1 mM ATP, geometric mean

Chain of GSK3b (GST-full length GSK3b) (P49841 whole entry): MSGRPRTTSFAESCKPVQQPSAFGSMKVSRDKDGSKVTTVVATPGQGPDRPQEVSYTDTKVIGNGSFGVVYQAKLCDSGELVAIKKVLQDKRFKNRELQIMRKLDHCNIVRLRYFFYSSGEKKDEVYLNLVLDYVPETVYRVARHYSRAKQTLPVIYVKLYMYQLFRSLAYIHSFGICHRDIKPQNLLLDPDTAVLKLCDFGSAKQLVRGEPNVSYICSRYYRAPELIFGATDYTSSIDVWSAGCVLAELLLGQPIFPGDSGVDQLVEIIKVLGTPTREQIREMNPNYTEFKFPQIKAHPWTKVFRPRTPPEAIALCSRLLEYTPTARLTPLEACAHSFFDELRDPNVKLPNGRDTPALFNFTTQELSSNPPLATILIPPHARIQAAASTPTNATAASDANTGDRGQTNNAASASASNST
Chain of GSK3α (GST-full length GSK3α) (P49840 whole entry): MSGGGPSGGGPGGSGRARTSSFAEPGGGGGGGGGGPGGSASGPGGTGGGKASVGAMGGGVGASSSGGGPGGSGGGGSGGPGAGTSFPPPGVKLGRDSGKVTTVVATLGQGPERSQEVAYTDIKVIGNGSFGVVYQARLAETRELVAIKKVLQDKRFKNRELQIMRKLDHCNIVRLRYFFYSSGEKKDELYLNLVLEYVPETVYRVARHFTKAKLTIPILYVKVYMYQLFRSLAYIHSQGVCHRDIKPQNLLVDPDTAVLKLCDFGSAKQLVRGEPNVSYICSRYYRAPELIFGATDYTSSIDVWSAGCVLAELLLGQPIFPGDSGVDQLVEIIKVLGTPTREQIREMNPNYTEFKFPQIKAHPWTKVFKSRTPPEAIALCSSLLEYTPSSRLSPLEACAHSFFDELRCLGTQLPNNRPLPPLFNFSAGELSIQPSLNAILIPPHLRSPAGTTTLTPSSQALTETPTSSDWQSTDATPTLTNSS

Compound | pIC50 [1, 3] | pIC50 [2, 4] | pIC50 [1, 5] | pIC50 [2, 6] | also measured
CC[C@]1(c2cccc(-c3cc(C)nc(C)c3)c2)C2=C(CC(C)(C)CC2=O)Nc2n[nH]cc21 [Compound 913223] | < 5.30 | < 5.30 |  |  | 
CCC1(c2cccc(Br)c2)C2=C(CC(C)NC2=O)Nc2n[nH]cc21 (centres unmarked) [Compound 913225] |  |  |  |  | pIC50 ([1]; 1 nM GSK3α, 4 μM ATP, 30 minute preincubation, read-out: GSK3-A TR-FRET BIOCHEMICAL (TR-FRET), IC50): 6.00 to 7.00; pIC50 ([2]; 1 nM GSK3b, 2 μM ATP, 30 minute preincubation, read-out: GSK3-B TR-FRET BIOCHEMICAL (TR-FRET), IC50): 5.30 to 6.00
CCC1(c2cccc(N(C)c3ccc(OC)nc3)c2)C2=C(CC(C)(C)CC2=O)Nc2n[nH]cc21 (centres unmarked) [Compound 913252] | 6.00 to 7.00 | 6.00 to 7.00 |  |  | 
CCC1(c2cccc(N(C)c3ccnc(C(F)(F)F)c3)c2)C2=C(CC(C)(C)CC2=O)Nc2n[nH]cc21 (centres unmarked) [Compound 913254] | ≥ 7.00 | ≥ 7.00 |  |  | 
CCC1(c2cccc(N(C)c3cc(C)nc(C)c3)c2)C2=C(CC(C)(C)CC2=O)Nc2n[nH]cc21 (centres unmarked) [Compound 913256] | 5.30 to 6.00 | < 5.30 |  |  | 
CCC1(c2cccc(S(=O)(=O)Cc3ccccc3)c2)C2=C(CC(C)(C)CC2=O)Nc2n[nH]cc21 (centres unmarked) [Compound 913258] | ≥ 7.00 | ≥ 7.00 |  |  | 
CCC1(c2cccc(N(c3cccnc3)C3CC3)c2)C2=C(CC(C)(C)CC2=O)Nc2n[nH]cc21 (centres unmarked) [Compound 913274] | ≥ 7.00 | ≥ 7.00 |  |  | 
CCC1(c2cccc(N(C)C(=O)c3cnn(C)c3)c2)C2=C(CC(C)(C)CC2=O)Nc2n[nH]cc21 (centres unmarked) [Compound 913311] | ≥ 7.00 | ≥ 7.00 |  |  | pIC50 [1, 7]: < 5.30; pIC50 [2, 8]: < 5.30
CCC1(c2cccc(Nc3ncccn3)c2)C2=C(CC(C)(C)CC2=O)Nc2n[nH]cc21 (centres unmarked) [Compound 913334] | ≥ 7.00 | 6.00 to 7.00 |  |  | 
CCC1(c2cccc(-c3ccnc(C)c3C)c2)C2=C(CC(C)(C)CC2=O)Nc2n[nH]cc21 (centres unmarked) [Compound 913347] | ≥ 7.00 | ≥ 7.00 |  |  | 
CCC1(c2cccc(-c3ccnc(C(F)(F)F)c3)c2)C2=C(CC(C)(C)CC2=O)Nc2n[nH]cc21 (centres unmarked) [Compound 913348] | ≥ 7.00 | 6.00 to 7.00 |  |  | 
CCC1(c2cccc(-c3ccncc3F)c2)C2=C(CC(C)(C)CC2=O)Nc2n[nH]cc21 (centres unmarked) [Compound 913349] | ≥ 7.00 | ≥ 7.00 |  |  | 
CCC1(c2cccc(-c3ccnc(C(F)(F)F)c3)c2)C2=C(CC(C)(C)CC2=O)Nc2n[nH]cc21 (centres unmarked) [Compound 913350] | 6.00 to 7.00 | ≥ 7.00 |  |  | pIC50 [1, 7]: ≥ 7.00; pIC50 [2, 8]: 6.00 to 7.00
CCC1(c2cccc(-c3ccncc3C)c2)C2=C(CC(C)(C)CC2=O)Nc2n[nH]cc21 (centres unmarked) [Compound 913351] | ≥ 7.00 | ≥ 7.00 |  |  | 
CCC1(c2cccc(-c3ccnc(O)c3)c2)C2=C(CC(C)(C)CC2=O)Nc2n[nH]cc21 (centres unmarked) [Compound 913352] | ≥ 7.00 | ≥ 7.00 |  |  | 
CCC1(c2cccc(C(F)(F)F)c2)C2=C(CCCNC2=O)Nc2n[nH]cc21 (centres unmarked) [Compound 913355] |  |  | < 5.30 | < 5.30 | 

Continued, in another order:

pIC50 [1, 3] | pIC50 [2, 4] | pIC50 [1, 5] | pIC50 [2, 6] | Compound | also measured
 |  | ≥ 7.00 | ≥ 7.00 | CC1(C)CC(=O)C2=C(C1)Nc1n[nH]cc1C21CCN(S(=O)(=O)c2ccc3c(c2)CCO3)CC1 [Compound 913251] | 
≥ 7.00 | ≥ 7.00 |  |  | CCC1(c2cccc(NS(C)(=O)=O)c2)C2=C(CC(C)(C)CC2=O)Nc2n[nH]cc21 (centres unmarked) [Compound 913253] | 
 |  | ≥ 7.00 | ≥ 7.00 | CC1(C)CC(=O)C2=C(C1)Nc1n[nH]cc1C21CN(S(=O)(=O)C2CC2)C1 [Compound 913259] | 
 |  | ≥ 7.00 | ≥ 7.00 | Cn1ccc(S(=O)(=O)N2CC3(C2)C2=C(CC(C)(C)CC2=O)Nc2n[nH]cc23)n1 [Compound 913260] | 
 |  | ≥ 7.00 | ≥ 7.00 | COc1ccccc1S(=O)(=O)N1CC2(C1)C1=C(CC(C)(C)CC1=O)Nc1n[nH]cc12 [Compound 913261] | 
 |  | ≥ 7.00 | ≥ 7.00 | CC1(C)CC(=O)C2=C(C1)Nc1n[nH]cc1C21CN(S(=O)(=O)c2ccccn2)C1 [Compound 913262] | 
 |  | 6.00 to 7.00 | 6.00 to 7.00 | CC1(C)CC(=O)C2=C(C1)Nc1n[nH]cc1C21CN(S(=O)(=O)c2ccccc2F)C1 [Compound 913263] | 
 |  | ≥ 7.00 | ≥ 7.00 | CN1CC2(C1)C1=C(CC(C)(C)CC1=O)Nc1n[nH]cc12 [Compound 913264] | 
< 5.30 | < 5.30 |  |  | CC1(C)CC(=O)C2=C(C1)Nc1n[nH]cc1C21CN(S(=O)(=O)c2cccnc2)C1 [Compound 913265] | 
 |  | ≥ 7.00 | ≥ 7.00 | CC1(C)CC(=O)C2=C(C1)Nc1n[nH]cc1C21CCC(S(C)(=O)=O)CC1 (centres unmarked) [Compound 913356] | 

Source: patent publication US20250313563A1, “GLYCOGEN SYNTHASE KINASE 3 INHIBITORS AND USES THEREOF” (The Broad Institute, Inc., priority 2022, published 2025)
